Key:
[1] = molecular target: Serine/threonine-protein kinase Nek4 (Homo sapiens) (UniProt P51957); conditions: Compound concentration 1000.0 nM
[2] = molecular target: T1, Protein kinase C epsilon type (Homo sapiens) (UniProt Q02156); conditions: Compound concentration 1000.0 nM
T1 sequence (whole entry): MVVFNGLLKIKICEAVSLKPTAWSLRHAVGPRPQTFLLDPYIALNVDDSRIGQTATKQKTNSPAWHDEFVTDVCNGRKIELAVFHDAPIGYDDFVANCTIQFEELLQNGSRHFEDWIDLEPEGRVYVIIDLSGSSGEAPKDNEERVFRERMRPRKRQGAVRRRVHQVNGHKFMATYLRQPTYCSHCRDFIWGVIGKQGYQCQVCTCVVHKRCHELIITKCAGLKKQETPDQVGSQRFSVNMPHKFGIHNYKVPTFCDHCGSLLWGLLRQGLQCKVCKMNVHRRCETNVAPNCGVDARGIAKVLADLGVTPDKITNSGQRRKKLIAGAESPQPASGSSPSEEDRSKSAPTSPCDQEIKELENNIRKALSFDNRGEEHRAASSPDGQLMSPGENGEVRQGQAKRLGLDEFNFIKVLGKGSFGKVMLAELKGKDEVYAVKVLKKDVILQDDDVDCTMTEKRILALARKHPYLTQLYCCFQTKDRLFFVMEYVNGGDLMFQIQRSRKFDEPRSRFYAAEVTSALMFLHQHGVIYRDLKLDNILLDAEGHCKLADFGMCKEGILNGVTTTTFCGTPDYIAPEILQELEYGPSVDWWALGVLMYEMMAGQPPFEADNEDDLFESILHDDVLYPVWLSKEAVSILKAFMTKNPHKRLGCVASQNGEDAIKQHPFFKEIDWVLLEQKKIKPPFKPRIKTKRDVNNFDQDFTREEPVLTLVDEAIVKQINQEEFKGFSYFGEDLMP

[3] = molecular target: T2, Inhibitor of nuclear factor kappa-B kinase subunit alpha (Homo sapiens) (UniProt O15111); conditions: Compound concentration 1000.0 nM
T2 sequence (whole entry): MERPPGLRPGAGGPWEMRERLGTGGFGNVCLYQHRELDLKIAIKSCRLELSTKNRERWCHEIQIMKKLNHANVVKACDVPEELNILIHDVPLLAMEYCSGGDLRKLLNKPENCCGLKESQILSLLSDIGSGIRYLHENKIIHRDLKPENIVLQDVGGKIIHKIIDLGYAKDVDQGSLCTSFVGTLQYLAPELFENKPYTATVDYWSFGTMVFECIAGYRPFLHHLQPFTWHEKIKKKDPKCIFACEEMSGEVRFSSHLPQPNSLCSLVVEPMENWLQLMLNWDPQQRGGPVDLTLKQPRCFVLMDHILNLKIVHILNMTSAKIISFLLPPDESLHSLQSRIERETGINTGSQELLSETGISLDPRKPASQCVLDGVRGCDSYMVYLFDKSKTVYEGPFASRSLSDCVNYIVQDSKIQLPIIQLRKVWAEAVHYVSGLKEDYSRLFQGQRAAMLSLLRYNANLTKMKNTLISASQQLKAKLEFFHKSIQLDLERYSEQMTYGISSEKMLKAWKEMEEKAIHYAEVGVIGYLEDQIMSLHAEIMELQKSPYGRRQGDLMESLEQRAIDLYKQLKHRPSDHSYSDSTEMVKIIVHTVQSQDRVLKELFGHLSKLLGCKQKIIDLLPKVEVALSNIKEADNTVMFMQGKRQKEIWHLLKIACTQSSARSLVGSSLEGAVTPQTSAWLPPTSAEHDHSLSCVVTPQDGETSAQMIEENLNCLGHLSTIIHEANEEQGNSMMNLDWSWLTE

[4] = tested on: Proto-oncogene tyrosine-protein kinase receptor Ret (Homo sapiens), P07949 [V804L]; conditions: Compound concentration 1000.0 nM
Sequence of Proto-oncogene tyrosine-protein kinase receptor Ret (Homo sapiens), P07949 [V804L] (P07949 whole entry V804L): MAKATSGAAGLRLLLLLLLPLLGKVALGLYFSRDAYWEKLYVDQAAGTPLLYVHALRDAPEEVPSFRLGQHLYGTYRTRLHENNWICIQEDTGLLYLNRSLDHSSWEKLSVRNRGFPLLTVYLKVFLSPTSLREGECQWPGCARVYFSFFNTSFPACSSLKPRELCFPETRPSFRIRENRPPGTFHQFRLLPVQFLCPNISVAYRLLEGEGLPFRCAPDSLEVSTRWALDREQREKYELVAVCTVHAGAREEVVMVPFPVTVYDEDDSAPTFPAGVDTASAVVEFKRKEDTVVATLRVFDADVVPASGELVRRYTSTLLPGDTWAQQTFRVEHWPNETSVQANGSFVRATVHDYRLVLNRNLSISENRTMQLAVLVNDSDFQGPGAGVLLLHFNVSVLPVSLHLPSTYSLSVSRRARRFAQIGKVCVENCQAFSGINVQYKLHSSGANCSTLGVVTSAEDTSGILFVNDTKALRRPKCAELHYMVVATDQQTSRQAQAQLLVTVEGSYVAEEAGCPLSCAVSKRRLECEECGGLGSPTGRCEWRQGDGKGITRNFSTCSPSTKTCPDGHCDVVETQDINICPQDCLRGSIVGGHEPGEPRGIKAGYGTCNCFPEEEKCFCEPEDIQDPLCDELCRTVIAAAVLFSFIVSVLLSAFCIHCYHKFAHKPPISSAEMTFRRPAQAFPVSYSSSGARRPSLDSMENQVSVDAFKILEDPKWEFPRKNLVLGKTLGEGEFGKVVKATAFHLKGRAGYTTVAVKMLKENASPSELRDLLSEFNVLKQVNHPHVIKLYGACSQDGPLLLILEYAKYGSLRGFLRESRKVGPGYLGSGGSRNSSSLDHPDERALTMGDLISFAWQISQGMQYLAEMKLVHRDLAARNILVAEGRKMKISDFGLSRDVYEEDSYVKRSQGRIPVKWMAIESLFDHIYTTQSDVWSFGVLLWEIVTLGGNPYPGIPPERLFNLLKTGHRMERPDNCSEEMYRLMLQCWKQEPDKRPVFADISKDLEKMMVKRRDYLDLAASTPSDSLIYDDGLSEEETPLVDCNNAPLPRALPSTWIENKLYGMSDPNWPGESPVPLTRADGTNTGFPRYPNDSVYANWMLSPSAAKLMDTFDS

[5] = molecular target: Serine/threonine-protein kinase TAO1 (Homo sapiens) (UniProt Q7L7X3); conditions: Compound concentration 1000.0 nM
Sequence of Serine/threonine-protein kinase TAO1 (Homo sapiens) (Q7L7X3 whole entry): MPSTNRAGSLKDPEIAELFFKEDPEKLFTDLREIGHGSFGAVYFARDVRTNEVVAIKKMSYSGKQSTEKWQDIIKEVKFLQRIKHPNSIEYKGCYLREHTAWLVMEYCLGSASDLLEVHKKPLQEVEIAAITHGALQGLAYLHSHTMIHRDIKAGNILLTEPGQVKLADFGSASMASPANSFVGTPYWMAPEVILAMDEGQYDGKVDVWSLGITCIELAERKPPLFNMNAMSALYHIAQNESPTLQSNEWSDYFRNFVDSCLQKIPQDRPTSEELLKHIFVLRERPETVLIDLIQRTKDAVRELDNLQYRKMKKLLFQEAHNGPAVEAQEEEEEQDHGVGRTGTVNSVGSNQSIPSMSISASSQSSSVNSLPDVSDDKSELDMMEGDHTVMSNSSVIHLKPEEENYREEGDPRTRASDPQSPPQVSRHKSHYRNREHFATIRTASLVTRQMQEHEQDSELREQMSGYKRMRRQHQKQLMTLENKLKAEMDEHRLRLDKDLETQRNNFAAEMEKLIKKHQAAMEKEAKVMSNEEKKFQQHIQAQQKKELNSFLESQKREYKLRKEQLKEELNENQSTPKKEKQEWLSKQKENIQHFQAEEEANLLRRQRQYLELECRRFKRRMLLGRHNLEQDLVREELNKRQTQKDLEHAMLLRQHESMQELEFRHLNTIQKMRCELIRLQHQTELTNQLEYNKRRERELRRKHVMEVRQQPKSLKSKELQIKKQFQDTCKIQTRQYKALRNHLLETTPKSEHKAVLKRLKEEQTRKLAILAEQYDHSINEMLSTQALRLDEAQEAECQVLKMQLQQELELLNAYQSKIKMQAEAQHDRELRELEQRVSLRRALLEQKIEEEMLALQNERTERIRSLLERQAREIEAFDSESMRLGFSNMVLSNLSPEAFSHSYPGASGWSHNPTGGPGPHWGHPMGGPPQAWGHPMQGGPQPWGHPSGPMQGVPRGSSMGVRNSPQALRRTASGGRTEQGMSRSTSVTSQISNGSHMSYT

[6] = molecular target: GABA-A receptor; anion channel (Rattus norvegicus) (UniProt O09028+P15431+P18506+P18508+P19969+P20236+P23574+P23576+P28471+P28473+P30191+P62813+P63079+P63138+Q91ZM7+Q9ES14); conditions: Compound concentration 10.0 uM
[7] = molecular target: Serine/threonine-protein kinase N2 (Homo sapiens) (UniProt Q16513); conditions: Compound concentration 1000.0 nM
Sequence of Serine/threonine-protein kinase N2 (Homo sapiens) (Q16513 whole entry, looked up): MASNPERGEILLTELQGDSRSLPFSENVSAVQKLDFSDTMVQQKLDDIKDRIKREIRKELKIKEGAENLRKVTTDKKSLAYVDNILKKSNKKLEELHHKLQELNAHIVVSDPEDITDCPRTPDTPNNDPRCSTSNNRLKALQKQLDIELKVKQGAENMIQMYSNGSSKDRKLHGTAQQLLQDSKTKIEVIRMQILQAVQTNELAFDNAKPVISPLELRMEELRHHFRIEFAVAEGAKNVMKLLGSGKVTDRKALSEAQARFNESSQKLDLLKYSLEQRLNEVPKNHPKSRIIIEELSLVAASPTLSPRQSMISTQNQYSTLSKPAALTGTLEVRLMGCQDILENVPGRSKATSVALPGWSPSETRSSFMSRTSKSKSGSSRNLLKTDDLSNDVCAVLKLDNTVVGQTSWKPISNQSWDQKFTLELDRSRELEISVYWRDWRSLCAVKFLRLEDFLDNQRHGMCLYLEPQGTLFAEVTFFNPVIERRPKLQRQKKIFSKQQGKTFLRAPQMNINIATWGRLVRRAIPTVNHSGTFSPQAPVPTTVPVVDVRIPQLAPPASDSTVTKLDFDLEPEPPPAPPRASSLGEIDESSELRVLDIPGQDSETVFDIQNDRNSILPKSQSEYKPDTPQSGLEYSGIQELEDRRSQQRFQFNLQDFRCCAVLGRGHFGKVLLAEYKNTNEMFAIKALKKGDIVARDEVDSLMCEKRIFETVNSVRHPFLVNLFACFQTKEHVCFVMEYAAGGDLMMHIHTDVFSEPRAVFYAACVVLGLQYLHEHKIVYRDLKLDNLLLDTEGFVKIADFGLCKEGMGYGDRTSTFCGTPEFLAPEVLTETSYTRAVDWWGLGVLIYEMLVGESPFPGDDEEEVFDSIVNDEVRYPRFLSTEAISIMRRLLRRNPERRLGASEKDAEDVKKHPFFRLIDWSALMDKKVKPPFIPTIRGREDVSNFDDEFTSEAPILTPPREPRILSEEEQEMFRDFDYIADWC

[8] = molecular target: T3, Ephrin type-B receptor 3 (Homo sapiens) (UniProt P54753); conditions: Compound concentration 1000.0 nM
T3 sequence (whole entry): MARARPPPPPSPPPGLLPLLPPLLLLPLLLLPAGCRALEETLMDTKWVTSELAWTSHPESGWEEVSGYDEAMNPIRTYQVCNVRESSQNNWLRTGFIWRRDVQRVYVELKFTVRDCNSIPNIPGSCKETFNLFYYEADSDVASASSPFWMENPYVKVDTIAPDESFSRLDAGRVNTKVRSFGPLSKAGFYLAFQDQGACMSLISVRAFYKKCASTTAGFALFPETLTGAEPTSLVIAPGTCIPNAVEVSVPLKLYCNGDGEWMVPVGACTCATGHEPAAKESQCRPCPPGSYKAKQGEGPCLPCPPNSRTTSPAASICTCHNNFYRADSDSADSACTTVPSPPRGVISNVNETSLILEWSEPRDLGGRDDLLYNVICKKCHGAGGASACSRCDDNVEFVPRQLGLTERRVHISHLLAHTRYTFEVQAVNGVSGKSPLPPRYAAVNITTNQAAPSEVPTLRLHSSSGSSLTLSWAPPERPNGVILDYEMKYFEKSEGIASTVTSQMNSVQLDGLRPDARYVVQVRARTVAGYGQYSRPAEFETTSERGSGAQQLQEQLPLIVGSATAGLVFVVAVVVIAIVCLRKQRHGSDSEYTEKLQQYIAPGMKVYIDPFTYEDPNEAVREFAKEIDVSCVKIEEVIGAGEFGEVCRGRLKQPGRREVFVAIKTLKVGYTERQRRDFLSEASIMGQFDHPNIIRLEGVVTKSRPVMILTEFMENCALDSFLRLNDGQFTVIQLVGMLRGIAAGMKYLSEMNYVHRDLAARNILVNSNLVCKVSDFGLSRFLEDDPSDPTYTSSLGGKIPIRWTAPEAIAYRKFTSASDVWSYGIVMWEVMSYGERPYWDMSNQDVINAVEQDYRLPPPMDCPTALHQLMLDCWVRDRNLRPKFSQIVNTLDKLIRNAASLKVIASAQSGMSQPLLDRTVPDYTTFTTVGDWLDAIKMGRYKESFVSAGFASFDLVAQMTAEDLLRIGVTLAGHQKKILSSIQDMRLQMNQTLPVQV

Sequence of Serine/threonine-protein kinase Nek4 (Homo sapiens) (P51957 whole entry, looked up): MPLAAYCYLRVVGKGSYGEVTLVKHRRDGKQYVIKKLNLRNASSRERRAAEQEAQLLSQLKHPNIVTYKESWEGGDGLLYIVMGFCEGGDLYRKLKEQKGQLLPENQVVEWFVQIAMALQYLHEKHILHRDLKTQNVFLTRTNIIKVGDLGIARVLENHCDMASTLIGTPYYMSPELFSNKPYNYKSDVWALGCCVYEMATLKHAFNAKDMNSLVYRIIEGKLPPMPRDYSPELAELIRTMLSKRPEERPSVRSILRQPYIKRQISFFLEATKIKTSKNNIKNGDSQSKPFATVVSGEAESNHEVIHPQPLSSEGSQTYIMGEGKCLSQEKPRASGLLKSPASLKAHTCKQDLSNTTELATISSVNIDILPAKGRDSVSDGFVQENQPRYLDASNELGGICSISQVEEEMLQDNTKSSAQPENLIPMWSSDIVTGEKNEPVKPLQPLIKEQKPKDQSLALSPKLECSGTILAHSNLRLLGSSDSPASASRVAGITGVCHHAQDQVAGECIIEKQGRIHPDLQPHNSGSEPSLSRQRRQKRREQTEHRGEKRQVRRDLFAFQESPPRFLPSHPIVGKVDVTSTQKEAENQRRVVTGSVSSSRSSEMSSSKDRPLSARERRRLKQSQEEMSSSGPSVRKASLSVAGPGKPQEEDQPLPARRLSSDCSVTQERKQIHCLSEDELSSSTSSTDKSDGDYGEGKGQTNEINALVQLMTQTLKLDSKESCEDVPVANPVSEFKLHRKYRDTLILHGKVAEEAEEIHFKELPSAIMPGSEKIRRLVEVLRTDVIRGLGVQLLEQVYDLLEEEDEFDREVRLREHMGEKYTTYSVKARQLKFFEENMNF

CCc1ccccc1C(=O)Nc1n[nH]c2c(C)c(F)c(C3C(C#N)=C(C)N(C)C(C)=C3C#N)cc12 [BAY-3827]
residual activity [1]: 100%
residual activity [2]: 19%
residual activity [3]: 87%
residual activity [4]: 25%
residual activity [5]: 100%
inhibition [6]: -7.98%
residual activity [7]: 100%
residual activity [8]: 57%

CC1=C(C#N)C(c2ccc3c(c2)c(NC(=O)c2ccccc2C)nn3C)C(C#N)=C(C)N1 [BAY-974]
residual activity [1]: 100%
residual activity [2]: 85%
residual activity [3]: 77%
residual activity [4]: 100%
residual activity [5]: 100%
inhibition [6]: -0.8%
residual activity [7]: 100%
residual activity [8]: 99%

— ChEMBL document CHEMBL4507319 (2021)
